Tests used:
Assay type in all cases: in vivo
[1] = system: cocklebur (Xanthium strumarium); test: Test B pre-/postemergence plant response
In short: (§1)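 Visual scoring from 0 (no effect) to 100 (complete control) against untreated controls was done 13 to 15 days after greenhouse treatment. Chemicals were formulated in a surfactant-containing non-phytotoxic solvent and applied to soil preemergence or to 1- to 4-leaf (2-18 cm) plants postemergence.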

[2] = system: bermudagrass (Cynodon dactylon); test: Test B pre-/postemergence plant response
In short: as §1

[3] = system: large crabgrass (Digitaria sanguinalis); test: Test B pre-/postemergence plant response
In short: as §1

[4] = system: eastern black (E.B.) nightshade (Solanum ptycanthum); test: Test B pre-/postemergence plant response; conditions: Preemergence
In short: as §1

[5] = system: goosegrass (Eleusine indica); test: Test B pre-/postemergence plant response
In short: as §1

soybean (Glycine max) = test: Test B pre-/postemergence plant response
In short: as §1

[6] = system: johnsongrass (Sorghum halepense); test: Test B pre-/postemergence plant response
In short: as §1

[7] = system: green foxtail (Setaria viridis); test: Test B pre-/postemergence plant response
In short: as §1

[8] = system: Italian ryegrass (Lolium multiflorum); test: Test B pre-/postemergence plant response
In short: as §1

[9] = system: morningglory (Ipomoea coccinea); test: Test B pre-/postemergence plant response
In short: as §1

[10] = system: surinam grass (Brachiaria decumbens); test: Test B pre-/postemergence plant response
In short: as §1

[11] = system: Russian thistle (Salsola iberica); test: Test B pre-/postemergence plant response; conditions: Preemergence
In short: as §1

[12] = system: wheat (Triticum aestivum); test: Test B pre-/postemergence plant response
In short: as §1

[13] = system: chickweed (Stellaria media); test: Test B postemergence plant response; conditions: for Chickweed plant response rating: postemergence, 0-100 scale; for Plant response rating, Chickweed: Postemergence
In short: (§2)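 Emerged plants, 1- to 4-leaf stage, treated; greenhouse 13–15 d; eye-scored vs untreated controls (0–100 scale).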

[14] = system: winter barley (Hordeum vulgare); test: Test B postemergence plant response; conditions: for Barley plant response rating: postemergence; for Plant response rating, Barley: Postemergence, scale 0 to 100, 0 no effect, 100 complete control
In short: as §2

[15] = system: windgrass (Apera spica-venti); test: Test B postemergence plant response; conditions: for Windgrass plant response rating: postemergence, 0-100 scale; for Plant response rating, Windgrass: Postemergence
In short: as §2

[16] = 8 g ai/ha, postemergence, 0-100 scale
[17] = 16 g ai/ha, postemergence, 0-100 scale
[18] = Postemergence, 31 g ai/ha, scale 0 to 100
[19] = Postemergence, 62 g ai/ha, scale 0 to 100, 0 no effect, 100 complete control
[20] = Preemergence, 8 g ai/ha, scale 0 to 100 (0 no effect, 100 complete control)
[21] = Preemergence, 31 g ai/ha, scale 0 to 100 (0 no effect, 100 complete control)
[22] = Preemergence, 62 g ai/ha, 0 to 100 scale, 0 no effect, 100 complete control
[23] = Preemergence, 16 g ai/ha, scale 0 to 100
[24] = 8 g ai/ha, scale 0 to 100 (0 no effect, 100 complete control)
[25] = 31 g ai/ha, scale 0 to 100 (0 no effect, 100 complete control)
[26] = 62 g ai/ha, 0 to 100 scale, 0 no effect, 100 complete control
[27] = 62 g ai/ha, scale 0 to 100, 0 no effect, 100 complete control

COc1nn(C)c(=O)c(-n2nc(-c3ccc(Br)cc3)cc2C)c1O [Compound 82]
Cocklebur plant response rating [1, 16]: 0
Cocklebur plant response rating [1, 17]: 0
Plant response rating, Cocklebur [1, 18]: 0
Plant response rating, Cocklebur [1, 19]: 20
Cocklebur plant response rating [1, 20]: 0
Plant response rating, Cocklebur [1, 21]: 0
Plant response rating, Cocklebur [1, 22]: 35
Cocklebur plant response rating [1, 23]: 0
Bermudagrass plant response rating [2, 16]: 98
Bermudagrass plant response rating [2, 17]: 100
Plant response rating, Bermudagrass [2, 18]: 100
Plant response rating, Bermudagrass [2, 19]: 100
Bermudagrass plant response rating [2, 20]: 90
Bermudagrass plant response rating ([2]; Preemergence, 16 g ai/ha, scale 0 to 100 (0 no effect, 100 complete control)): 100
Plant response rating, Bermudagrass [2, 21]: 100
Plant response rating, Bermudagrass [2, 22]: 100
Crabgrass, Large plant response rating [3, 16]: 100
Crabgrass, Large plant response rating [3, 17]: 100
Plant response rating, Crabgrass, Large [3, 18]: 100
Plant response rating, Crabgrass, Large [3, 19]: 100
Crabgrass, Large plant response rating [3, 20]: 95
Plant response rating, Crabgrass, Large [3, 21]: 100
Plant response rating, Crabgrass, Large [3, 22]: 100
Crabgrass, Large plant response rating [3, 23]: 98
Nightshade, E. B. plant response rating [4, 24]: 0
Plant response rating, Nightshade, E. B. [4, 25]: 0
Plant response rating, Nightshade, E. B. [4, 26]: 0
Nightshade, E. B. plant response rating ([4]; 16 g ai/ha, scale 0 to 100): 0
Goosegrass plant response rating [5, 16]: 60
Goosegrass plant response rating [5, 17]: 65
Plant response rating, Goosegrass [5, 18]: 85
Plant response rating, Goosegrass [5, 19]: 90
Goosegrass plant response rating [5, 20]: 95
Plant response rating, Goosegrass [5, 21]: 98
Plant response rating, Goosegrass [5, 22]: 100
Goosegrass plant response rating [5, 23]: 98
Soybean plant response rating (soybean (Glycine max); [16]): 0
Soybean plant response rating (soybean (Glycine max); [17]): 45
Plant response rating, Soybean (soybean (Glycine max); [18]): 55
Plant response rating, Soybean (soybean (Glycine max); [19]): 70
Soybean plant response rating (soybean (Glycine max); [20]): 0
Plant response rating, Soybean (soybean (Glycine max); [21]): 20
Plant response rating, Soybean (soybean (Glycine max); [22]): 100
Soybean plant response rating (soybean (Glycine max); [23]): 0
Johnsongrass plant response rating [6, 16]: 100
Johnsongrass plant response rating [6, 17]: 100
Plant response rating, Johnsongrass [6, 18]: 100
Plant response rating, Johnsongrass [6, 19]: 100
Johnsongrass plant response rating [6, 20]: 70
Plant response rating, Johnsongrass [6, 21]: 98
Plant response rating, Johnsongrass [6, 22]: 100
Johnsongrass plant response rating [6, 23]: 85
Foxtail, Green plant response rating [7, 16]: 85
Foxtail, Green plant response rating [7, 17]: 100
Plant response rating, Foxtail, Green [7, 18]: 100
Plant response rating, Foxtail, Green [7, 19]: 100
Foxtail, Green plant response rating [7, 20]: 70
Plant response rating, Foxtail, Green [7, 21]: 100
Plant response rating, Foxtail, Green [7, 22]: 100
Foxtail, Green plant response rating [7, 23]: 100
Ryegrass, Italian plant response rating [8, 16]: 98
Ryegrass, Italian plant response rating [8, 17]: 98
Plant response rating, Ryegrass, Italian [8, 18]: 100
Plant response rating, Ryegrass, Italian [8, 19]: 100
Ryegrass, Italian plant response rating [8, 20]: 40
Plant response rating, Ryegrass, Italian [8, 21]: 100
Plant response rating, Ryegrass, Italian [8, 22]: 100
Ryegrass, Italian plant response rating [8, 23]: 98
Morningglory plant response rating [9, 16]: 0
Morningglory plant response rating [9, 17]: 0
Plant response rating, Morningglory [9, 18]: 0
Plant response rating, Morningglory [9, 19]: 55
Morningglory plant response rating [9, 20]: 0
Plant response rating, Morningglory [9, 21]: 0
Plant response rating, Morningglory [9, 22]: 25
Morningglory plant response rating [9, 23]: 0
Surinam Grass plant response rating [10, 16]: 75
Surinam Grass plant response rating [10, 17]: 95
Plant response rating, Surinam Grass [10, 18]: 100
Plant response rating, Surinam Grass [10, 19]: 100
Surinam Grass plant response rating [10, 20]: 80
Plant response rating, Surinam Grass [10, 21]: 95
Plant response rating, Surinam Grass [10, 22]: 100
Surinam Grass plant response rating [10, 23]: 85
Russian Thistle plant response rating [11, 24]: 0
Plant response rating, Russian Thistle [11, 25]: 0
Plant response rating, Russian Thistle [11, 26]: 0
Russian Thistle plant response rating ([11]; 16 g ai/ha, scale 0 to 100): 0
Wheat plant response rating [12, 16]: 85
Wheat plant response rating [12, 17]: 98
Plant response rating, Wheat [12, 18]: 100
Plant response rating, Wheat [12, 19]: 100
Wheat plant response rating [12, 20]: 0
Plant response rating, Wheat [12, 21]: 98
Plant response rating, Wheat [12, 22]: 100
Wheat plant response rating [12, 23]: 65
Chickweed plant response rating ([13]; 8 g ai/ha): 0
Chickweed plant response rating ([13]; 16 g ai/ha): 0
Plant response rating, Chickweed ([13]; 31 g ai/ha, scale 0 to 100): 0
Plant response rating, Chickweed [13, 27]: 90
Barley plant response rating ([14]; 8 g ai/ha, 0-100 scale): 90
Barley plant response rating ([14]; 16 g ai/ha, 0-100 scale (0 no effect, 100 complete control)): 98
Plant response rating, Barley ([14]; 31 g ai/ha): 100
Plant response rating, Barley ([14]; 62 g ai/ha): 100
Windgrass plant response rating ([15]; 8 g ai/ha): 70
Windgrass plant response rating ([15]; 16 g ai/ha): 100
Plant response rating, Windgrass ([15]; 31 g ai/ha, scale 0 to 100): 100
Plant response rating, Windgrass [15, 27]: 100
